Molecular target: CDK2/CyclinE1 (Homo sapiens (Human), UniProt P24941)
Assay: CDK2 kinase assay (TR-FRET)
Format: biochemical
Conditions: CDK2/CyclinE1 0.5 nM, ATP 50 μM
Protocol: The purpose of these assays is to evaluate the inhibition of small molecule inhibitors by using TR-FRET assay.
Compound Preparation. Dissslove the compounds into DMSO solution to make 10 mM DMSO stock. Serially dilute the stock solution from highest concentration down to lowest in DMSO to make the compound stock plate (100× stock plates). To make 5× compound intermediate plate, add 38 μL of assay buffer (50 mM HEPES, pH 7.5, 0.05 mg/mL BSA, 10 mM MgCl2, 1 mM EGTA, 0.01% Tween-20, 2 mM DTT) into each well of the V-bottom plate; then transfer 2 μL of the stock compound solution of each concentration from the compound stock plate (100× stock), and mix well.
Enzyme reaction. Transfer 2 μL compound from 5× intermediate plate into assay plate, then add 4 μL/well 2.5× Enzyme mix to assay plate, incubation for 10 min at room temperature. For positive control wells, add 4 μL/well assay buffer instead of Enzyme mix. Then add 4 μL/well 2.5× Substrate mix to assay plate, and incubation at 25° C. for 30 min at room temperature. After reaction, 10 μL 2× Detection mix (final 15 mM EDTA, 1× LANCE Detection Buffer, 0.5 nM Detection antibody) was added and incubated for 1 h prior to detection with excitation and emission at 320 and 665 nm (Tecan Spark® TR-FRET mode Tecan).
Inhibition rate (IR) of the tested compounds was determined by the following formula: IR (%)=(average High control−compound well)/(average High control−average Low control)*100%. Fit the compound IC50 from non-linear regression equation: Y=Bottom+(Top−Bottom)/(1+10^((Log IC50−X)*HillSlope)). X: Log of cpd concentration; Y: Inhibition rate (TR); Top and Bottom: Plateaus in same units as Y, log IC50: same log units as X; HillSlope: Slope factor or Hill slope.

SMILES	IC50 [nM]
Cc1cc(CC(=O)Nc2cc([C@H]3CC[C@@H](OC(=O)NC4COC5(CCC5)C4)C3)[nH]n2)on1 (single isomer, unassigned) [Compound 38]	22.4
Cc1cc(CC(=O)Nc2cc([C@H]3CC[C@@H](OC(=O)NC4COC5(CCC5)C4)C3)[nH]n2)on1 (single isomer, unassigned) [Compound 39]	4
Cn1nccc1C(=O)Nc1cc([C@H]2CC[C@@H](OC(=O)NC3COC4(CCC4)C3)C2)[nH]n1 (single isomer, unassigned) [Compound 43]	12.1
Cn1nc(C2CC2)cc1C(=O)Nc1cc([C@H]2CC[C@@H](OC(=O)NC3COC4(CCC4)C3)C2)[nH]n1 (single isomer, unassigned) [Compound 47]	64
Cn1nc(C2CC2)cc1C(=O)Nc1cc([C@H]2CC[C@@H](OC(=O)NC3COC4(CCC4)C3)C2)[nH]n1 (single isomer, unassigned) [Compound 48]	10.7
COC1CCC(C(=O)Nc2cc([C@H]3CC[C@@H](OC(=O)NC(C)C)C3)[nH]n2)C1 (single isomer, unassigned) [Compound 60]	37.4
COC1CCC(C(=O)Nc2cc([C@H]3CC[C@@H](OC(=O)NC(C)C)C3)[nH]n2)C1 (single isomer, unassigned) [Compound 61]	13.1
COC[C@H]1C[C@@H]1C(=O)Nc1cc([C@H]2CC[C@@H](OC(=O)NC(C)C(F)F)C2)[nH]n1 (single isomer, unassigned) [Compound 107]	3
COC[C@H]1C[C@@H]1C(=O)Nc1cc([C@H]2CC[C@@H](OC(=O)NC(C)C(F)F)C2)[nH]n1 (single isomer, unassigned) [Compound 108]	5
CC(C)NC(=O)O[C@@H]1CC[C@H](c2cc(NC(=O)C3CC3C#N)n[nH]2)C1 (single isomer, unassigned) [Compound 117]	3.8
CC(C)NC(=O)O[C@@H]1CC[C@H](c2cc(NC(=O)C3CC3C#N)n[nH]2)C1 (single isomer, unassigned) [Compound 118]	1.8
CC(C)NC(=O)O[C@@H]1CC[C@H](c2cc(NC(=O)C3CC(C)N(S(C)(=O)=O)C3)n[nH]2)C1 (single isomer, unassigned) [Compound 144]	4.3
CC(C)NC(=O)O[C@@H]1CC[C@H](c2cc(NC(=O)C3CC4CCC3O4)n[nH]2)C1 (single isomer, unassigned) [Compound 146]	44.3
COCC1CC(C(=O)Nc2cc([C@H]3CC[C@@H](OC(=O)NC(C)C)C3)[nH]n2)C1 (single isomer, unassigned) [Compound 148]	5.5
COCC1CC(C(=O)Nc2cc([C@H]3CC[C@@H](OC(=O)NC(C)C)C3)[nH]n2)C1 (single isomer, unassigned) [Compound 149]	13.4
CC(C)NC(=O)O[C@@H]1CC[C@H](c2cc(NC(=O)C3CC4CCC3O4)n[nH]2)C1 (single isomer, unassigned) [Compound 152]	85.5
CC(C)NC(=O)O[C@@H]1CC[C@H](c2cc(NC(=O)C3CC3c3cnnn3C)n[nH]2)C1 (single isomer, unassigned) [Compound 153]	2.1
CC(C)NC(=O)O[C@@H]1CC[C@H](c2cc(NC(=O)C3CC3c3cnnn3C)n[nH]2)C1 (single isomer, unassigned) [Compound 154]	2.6
Cc1c(C2CC2C(=O)Nc2cc([C@H]3CC[C@@H](OC(=O)NC(C)C)C3)[nH]n2)cnn1C (single isomer, unassigned) [Compound 163]	0.7
CC(C)(C)NC(=O)O[C@@H]1CC[C@H](c2cc(NC(=O)C3CC3C#N)n[nH]2)C1 (single isomer, unassigned) [Compound 187]	1.4
CC(C)(C)NC(=O)O[C@@H]1CC[C@H](c2cc(NC(=O)C3CC3C#N)n[nH]2)C1 (single isomer, unassigned) [Compound 188]	0.6
CC(C)NC(=O)O[C@H]1CC[C@@H](c2cc(NC(=O)C3CC3C#N)n[nH]2)C1 (single isomer, unassigned) [Compound 192]	2
CC(C)NC(=O)O[C@H]1CC[C@@H](c2cc(NC(=O)C3CC3C#N)n[nH]2)C1 (single isomer, unassigned) [Compound 193]	0.6
CC1(NC(=O)O[C@H]2CC[C@@H](c3cc(NC(=O)C4CC4C#N)n[nH]3)C2)CC1 (single isomer, unassigned) [Compound 195]	1.5
CC1(NC(=O)O[C@H]2CC[C@@H](c3cc(NC(=O)C4CC4C#N)n[nH]3)C2)CC1 (single isomer, unassigned) [Compound 196]	0.4
CC[C@H](C)NC(=O)O[C@@H]1CC[C@H](c2cc(NC(=O)C3CC3C#N)n[nH]2)C1 (single isomer, unassigned) [Compound 199]	2.3

SMILES	IC50 [nM]
CC[C@H](C)NC(=O)O[C@@H]1CC[C@H](c2cc(NC(=O)C3CC3C#N)n[nH]2)C1 (single isomer, unassigned) [Compound 200]	0.9
Cc1c(C2CC2C(=O)Nc2cc([C@H]3CC[C@@H](OC(=O)NC4(C)CC4)C3)[nH]n2)cnn1C (single isomer, unassigned) [Compound 205]	24
Cc1c(C2CC2C(=O)Nc2cc([C@H]3CC[C@@H](OC(=O)NC4(C)CC4)C3)[nH]n2)cnn1C (single isomer, unassigned) [Compound 206]	0.8
Cc1c(C2CC2C(=O)Nc2cc([C@@H]3CC[C@H](OC(=O)NC(C)C)C3)[nH]n2)cnn1C (single isomer, unassigned) [Compound 207]	40.1
Cc1c(C2CC2C(=O)Nc2cc([C@@H]3CC[C@H](OC(=O)NC(C)C)C3)[nH]n2)cnn1C (single isomer, unassigned) [Compound 208]	0.8
CC(C)NC(=O)O[C@@H]1CC[C@H](c2cc(NC(=O)C3CC3c3cnn(C)c3)n[nH]2)C1 (single isomer, unassigned) [Compound 209]	29
CC(C)NC(=O)O[C@@H]1CC[C@H](c2cc(NC(=O)C3CC3c3cnn(C)c3)n[nH]2)C1 (single isomer, unassigned) [Compound 210]	1
CC1(NC(=O)O[C@@H]2CC[C@H](c3cc(NC(=O)C4CC4C#N)n[nH]3)C2)CC1 (single isomer, unassigned) [Compound 212]	2.1
CC1(NC(=O)O[C@@H]2CC[C@H](c3cc(NC(=O)C4CC4C#N)n[nH]3)C2)CC1 (single isomer, unassigned) [Compound 213]	0.9
COC(C)[C@H]1C[C@@H]1C(=O)Nc1cc([C@H]2CC[C@@H](OC(=O)NC3(C)CC3)C2)[nH]n1 (single isomer, unassigned) [Compound 220]	1.5
COC(C)[C@H]1C[C@@H]1C(=O)Nc1cc([C@H]2CC[C@@H](OC(=O)NC3(C)CC3)C2)[nH]n1 (single isomer, unassigned) [Compound 221]	0.8
CC(C)NC(=O)O[C@@H]1CC[C@H](c2cc(NC(=O)C3CCOCC3)n[nH]2)C1 [Compound 1]	7.1
CO[C@H]1CC[C@H](C(=O)Nc2cc([C@H]3CC[C@@H](OC(=O)NC(C)C)C3)[nH]n2)CC1 [Compound 2]	17.8
CC(C)NC(=O)O[C@@H]1CC[C@H](c2cc(NC(=O)[C@H]3CCN(S(C)(=O)=O)C3)n[nH]2)C1 [Compound 7]	2.4
CC(C)NC(=O)O[C@@H]1CC[C@H](c2cc(NC(=O)C3CCN(S(C)(=O)=O)CC3)n[nH]2)C1 [Compound 8]	11.3
COCc1cc(C(=O)Nc2cc([C@@H]3C[C@H](OC(=O)NC(C)C)[C@@H]4C[C@@H]43)[nH]n2)n(C)n1 [Compound 9]	1000
COCc1cc(C(=O)Nc2n[nH]c([C@H]3CC[C@@H](OC(=O)NC(C)C)C3)c2F)n(C)n1 [Compound 10]	92.4
CC(C)NC(=O)O[C@@H]1CC[C@H](c2cc(Nc3nccc(-c4cnn(C)c4)n3)n[nH]2)C1 [Compound 11]	40.7
CC(C)NC(=O)O[C@@H]1CC[C@H](c2cc(Nc3nccc(CCO)n3)n[nH]2)C1 [Compound 12]	10.1
CC(C)NC(=O)O[C@@H]1CC[C@H](c2cc(NC(=O)[C@H]3CCN(CC(F)F)C3)n[nH]2)C1 [Compound 13]	5.8
CC(C)NC(=O)O[C@@H]1CC[C@H](c2cc(NC(=O)[C@H]3CCN(C(=O)C(C)C)C3)n[nH]2)C1 [Compound 14]	1.7
COCc1cc(C(=O)NC2=NCC([C@H]3CC[C@H](N4CCN(C(C)C)C4=O)C3)=C2)n(C)n1 [Compound 20]	1000
CC(C)NC(=O)OC1COC(c2cc(NC(=O)c3ccnn3C)n[nH]2)C1 (stereo not shown) [Compound 26]	3.7
CC(C)NC(=O)OC1COC(c2cc(NC(=O)c3ccnn3C)n[nH]2)C1 (stereo not shown) [Compound 27]	1.2
COC[C@@H]1C[C@H]1C(=O)Nc1cc([C@H]2CC[C@@H](OC(=O)NC(C)C)C2)[nH]n1 [Compound 28]	110
CC(C)NC(=O)O[C@@H]1CC[C@H](c2cc(Nc3nccc(CCO)n3)n[nH]2)C1 [Compound 29]	68.8

— US20250195475A1, “CDK2 INHIBITOR AND PREPARATION METHOD AND USE THEREOF” (INVENTISBIO CO., LTD., priority 2022, published 2025)
